Experimental data published in ChEMBL document CHEMBL5149971, “Pyridones in drug discovery: Recent advances” (Bioorg Med Chem Lett, 2021).

How the values were obtained:
rhinovirus B14 [1] = test: Antiviral activity against Human rhinovirus 14 infected in H1-HeLa cells assessed as reduction in viral infection measured after 2 days by XTT dye reduction method; assay type: functional, organism-based; conditions: Rhinovirus B, 48 h
rhinovirus B14 [2] = test: Antiviral activity against Human rhinovirus 14 infected in H1-HeLa cells assessed as reduction in viral infection measured after 5 days by XTT dye reduction method; assay type: functional, organism-based; conditions: Rhinovirus B, 120 h
[3] = Inhibition of MEK (unknown origin) in the presence of [gamma33P]ATP by scintillation counting method; parameters: species or system Homo sapiens
[4] = Oral bioavailability in hamster; assay type: ADME, organism-based, Mesocricetus auratus; conditions: in vivo
Neutrophil elastase = biological target: T1, Neutrophil elastase (Homo sapiens, UniProt P08246); test: Inhibition of human neutrophil elastase using methoxysuccinyl-Ala-Ala-Pro-Val-pnitroanilide as substrate by spectrophotometric analysis
T1 sequence (P08246 whole entry): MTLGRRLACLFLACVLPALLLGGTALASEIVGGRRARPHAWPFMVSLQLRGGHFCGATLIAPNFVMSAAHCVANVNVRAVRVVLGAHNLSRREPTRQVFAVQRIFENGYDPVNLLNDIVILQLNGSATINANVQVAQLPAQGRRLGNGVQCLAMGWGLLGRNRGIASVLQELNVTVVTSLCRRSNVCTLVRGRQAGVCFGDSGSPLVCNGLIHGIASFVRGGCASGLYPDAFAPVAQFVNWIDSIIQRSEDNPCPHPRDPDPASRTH

CCOC(=O)/C=C/[C@H](CCC(N)=O)NC(=O)[C@H](Cc1ccccc1)NC(=O)[C@H](CC(C)C)NC(=O)OCc1ccccc1
EC50 (rhinovirus B14 [1]): 540 nM

CCOC(=O)/C=C/[C@H](C[C@@H]1CCNC1=O)NC(=O)[C@@H](CC(=O)[C@@H](NC(=O)c1cc(C)on1)C(C)C)Cc1ccc(F)cc1
EC50 (rhinovirus B14 [2]): 13 nM

CC(C)(C)c1nc2c3ccc(F)cc3c3c(=O)[nH]ccc3c2[nH]1
IC50 [3]: 160 nM

CC(C)C(NC(=O)Cn1c(-c2ccc(F)cc2)ncc(N)c1=O)C(=O)C(F)(F)F (stereo not given)
bioavailability [4]: 77%

CC(C)C(NC(=O)[C@@H]1CCCN1C(=O)[C@@H](NC(=O)c1ccc(C(=O)NS(=O)(=O)c2ccc(Cl)cc2)cc1)C(C)C)C(N)=O (stereo not given in full)
Ki (Neutrophil elastase): 0.5 nM
